Reference: patent US11001591B2, “TRAF 6 inhibitors” (HELMHOLTZ ZENTRUM MUENCHEN—DEUTSCHES FORSCHUNGSZENTRUM FÜR …, priority 2016, dated 2021)
Entries after “also recorded” stand apart in the source; their conditions may differ. Read-outs that look alike come from different tables or passages of the source.

Key:
TRAF6-Ubc13 binding = target: T1, TRAF6-Ubc13 binding (Homo sapiens, UniProt Q9Y4K3); assay: Co-immunoprecipitation of HA-TRAF6 and endogenous Ubc13 in HEK 293T cells; format: cell-based
T1 construct: RING-Zincfinger1 (RZ1) domain (residues 50-159) of TRAF6 wildtype; expressed in transfected cells; host or cells: HEK 293T
T1 sequence (Q9Y4K3 50-159): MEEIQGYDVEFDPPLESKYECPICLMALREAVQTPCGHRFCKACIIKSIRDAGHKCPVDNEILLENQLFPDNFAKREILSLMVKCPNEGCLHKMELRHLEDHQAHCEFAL
Description: To study the interaction of TRAF6 and Ubc13 in cells, 1×10^6 293T cells were seeded and after 18 hours cells were transfected with lpg pEF-HA empty or pEF-HA-TRAF6 RZ1 plasmid using the X-tremeGENE HP DNA transfection reagent (Roche). 6 hours upon transfection, cells were treated with compound or DMSO. After 42 hours further incubation, cells were harvested in Co-IP lysis buffer and HA-TRAF6 was immunoprecipitated with anti-HA affinity matrix (Roche). Binding of Ubc13 to TRAF6 was examined in Western Blot analysis.

TRAF6-UBC13 interaction = target: T2, TRAF6-UBC13 interaction (Homo sapiens, UniProt Q9Y4K3); assay: ALPHAScreen TRAF6WTStrepII-Ubc13FH interaction assay; format: binding
T2 construct: RING-Zincfinger1 (RZ1) domain (residues 50-159) of TRAF6 wildtype; made in house; host or cells: E. coli BL21 codon plus RIPL
T2 sequence (Q9Y4K3 50-159): T1 sequence (Q9Y4K3 50-159)
From the text: In order to identify small molecules that specifically target the RZ1 domain of TRAF6 and thereby prevent its binding to Ubc13, the ALPHAScreen technology (PerkinElmer) was chosen to detect TRAF6WTStrepII-Ubc13FH interaction in High-Throughput-Screenings as well as Structure Activity Relationship (SAR) analysis.
For performance of an automated ALPHAScreen assay, all following components were pre-diluted in ALPHAScreen buffer (1×PBS, 0.5% BSA, 0.01% Tween-20). First, the TRAF6 protein (end concentration 100 nM, 30 μL volume) was added to 384-well-opti-plates involving the MultiFlo dispensing system (BioTek) followed by transfer of the compounds via the Sciclone G3 transfer station (PerkinElmer). After addition of Ubc13FH (end concentration 75 nM, 10 μL volume) with the MultiFlo system and incubation for one hour at room temperature, both beads (Strep-Tactin Alpha Donor beads and Nickel-Chelate acceptor beads; end concentrations 4 μg each, 10 μL volume each) were mixed and added using the MultiFlo system in subdued light. Read-out of the plates occurred after another hour of incubation at room temperature. Statistical parameters including the coefficient of variation, Z′ factor and signal window were calculated to determine the quality of the HTS campaign. To evaluate the efficacy of the compounds, ALPHAScreen units of compound-treated samples were referred to DMSO control treated samples. Thereby, the TRAF6D57K mutant served as the control for minimum signal and was included on every plate of the screening. Compounds that inhibited TRAF6WTStrepII-Ubc13FH by more than 25% were considered as actives. After elimination of ALPHAScreen frequent hitter compounds and His-tag frequent hitters (Schorpp, K., I. Rothenaigner, E. Salmina, et al., Identification of Small-Molecule Frequent Hitters from AlphaScreen High-Throughput Screens. J Biomol Screen, 2014. 19(5): p. 715-26), 178 compounds were defined as primary hits and were subsequently tested in five-point serial dilution assays (2.5-40 μM) in TRAF6WTStrepII-Ubc13FH ALPHAScreen experiments. Only compounds with dose-dependent effects on TRAF6WTStrepII-Ubc13FH (n=27) were taken for further research. For analog testing, all compounds were analyzed in ten-point titration (0.2-100 μM) in TRAF6WTStrepII-Ubc13FH ALPHAScreen experiments. In parallel, the compounds were tested in the ALPHAScreen TruHits Kit (PerkinElmer) to rule out unspecific interference with the ALPHAScreen technology.

`Cc1nn(-c2ccc3nnc(C)n3n2)c(C)c1CCC(=O)N1CCN(Cc2ccccc2)CC1` [Compound 28, 1-(4-benzylpiperazin-1-yl)-3-(3,5-dimethyl-1-(3-methyl-[1,2,4]triazolo[4,3-b]pyridazin-6-yl)-1H-pyrazol-4-yl)propan-1-one] was tested, and the “interaction of endogenous Ubc13 with ectopically expressed HA-TRAF6” value (shortened to “interaction of endogenous Ubc13”) (TRAF6-Ubc13 binding) was “active in cells”.

`Cc1nn(-c2ccc3nnc(C)n3n2)c(C)c1CCC(=O)N1CCC(Cc2ccc(F)cc2)CC1` [Compound 35, 3-(3,5-dimethyl-1-(3-methyl-[1,2,4]triazolo[4,3-b]pyridazin-6-yl)-1H-pyrazol-4-yl)-1-(4-(4-fluorobenzyl)piperidin-1-yl)propan-1-one] was tested, and the “interaction of endogenous Ubc13” value (TRAF6-Ubc13 binding; listed as HZM06-9) was “active in cells; also recorded: most active analogs”.

`Cc1nn(-c2ccc3nnc(C)n3n2)c(C)c1CCC(=O)N1CCC(c2ccccc2)CC1` [Compound 32, 3-(3,5-dimethyl-1-(3-methyl-[1,2,4]triazolo[4,3-b]pyridazin-6-yl)-1H-pyrazol-4-yl)-1-(4-phenylpiperidin-1-yl)propan-1-one] was tested, and the “interaction of endogenous Ubc13” value (TRAF6-Ubc13 binding) was “active in cells”.

For `Cc1nn(-c2ccc3nnc(C)n3n2)c(C)c1CCC(=O)N1CCN(Cc2ccc(F)cc2)CC1` [Compound 30, 3-(3,5-dimethyl-1-(3-methyl-[1,2,4]triazolo[4,3-b]pyridazin-6-yl)-1H-pyrazol-4-yl)-1-(4-(4-fluorobenzyl)piperazin-1-yl)propan-1-one], the “interaction of endogenous Ubc13” value (TRAF6-Ubc13 binding) was “active in cells”.

For `Cc1nn(-c2ccc3nnc(C)n3n2)c(C)c1CCC(=O)N1CCC(Cc2ccccn2)CC1` [Compound 36, 3-(3,5-dimethyl-1-(3-methyl-[1,2,4]triazolo[4,3-b]pyridazin-6-yl)-1H-pyrazol-4-yl)-1-(4-(pyridin-2-ylmethyl)piperidin-1-yl)propan-1-one], the “interaction of endogenous Ubc13” value (TRAF6-Ubc13 binding) was “active in cells”.

For `Cc1nn(-c2ccc3nnc(C)n3n2)c(C)c1CCC(=O)N1CCC(c2ccccn2)CC1` [Compound 33, 3-(3,5-dimethyl-1-(3-methyl-[1,2,4]triazolo[4,3-b]pyridazin-6-yl)-1H-pyrazol-4-yl)-1-(4-(pyridin-2-yl)piperidin-1-yl)propan-1-one], the “interaction of endogenous Ubc13” value (TRAF6-Ubc13 binding; listed as HZM06-7) was “active in cells; also recorded: most active analogs”.

`COc1cccc(CC2CCN(C(=O)CCc3c(C)nn(-c4ccc5nnc(C)n5n4)c3C)CC2)c1` [Compound 34, 3-(3,5-dimethyl-1-(3-methyl-[1,2,4]triazolo[4,3-b]pyridazin-6-yl)-1H-pyrazol-4-yl)-1-(4-(3-methoxybenzyl)piperidin-1-yl)propan-1-one] was tested, and the “interaction of endogenous Ubc13” value (TRAF6-Ubc13 binding; listed as HZM06-8) was “active in cells; also recorded: most active analogs”.

For `COc1cccc(CN2CCN(C(=O)CCc3c(C)nn(-c4ccc5nnc(C)n5n4)c3C)CC2)c1` [Compound 29, 3-(3,5-dimethyl-1-(3-methyl-[1,2,4]triazolo[4,3-b]pyridazin-6-yl)-1H-pyrazol-4-yl)-1-(4-(3-methoxybenzyl)piperazin-1-yl)propan-1-one], the “interaction of endogenous Ubc13” value (TRAF6-Ubc13 binding) was “active in cells”.

Compound `Cc1nn(-c2ccc3nnc(C)n3n2)c(C)c1CCC(=O)N1CCN(c2ccccc2F)CC1` [Compound 14, 3-(3,5-dimethyl-1-(3-methyl-[1,2,4]triazolo[4,3-b]pyridazin-6-yl)-1H-pyrazol-4-yl)-1-(4-(2-fluorophenyl)piperazin-1-yl)propan-1-one] has an IC50 (TRAF6-UBC13 interaction; inhibition of TRAF6-UBC13 interaction) of at most 30 µM.

In the case of `Cc1nn(-c2ccc3nnc(C)n3n2)c(C)c1CCC(=O)N1CCC(Cc2ccccc2)C1` (centres unmarked) [Compound 31, 1-(3-benzylpyrrolidin-1-yl)-3-(3,5-dimethyl-1-(3-methyl-[1,2,4]triazolo[4,3-b]pyridazin-6-yl)-1H-pyrazol-4-yl)propan-1-one], the “inhibitory activity in ALPHAScreen” value (TRAF6-UBC13 interaction; serial dilution) is reported as “most prominent effect” and the “interaction of endogenous Ubc13” value (TRAF6-Ubc13 binding; listed as HZM06-4) is reported as “active in cells; also recorded: most active analogs”.
